The supplement of paper PMC10307832

Legend:
Experiment in all cases: relative viability (nuclei count vs DMSO), 5 days (fraction); higher = more cells survive
Neratinib + Alpelisib = compound: CCOc1cc2ncc(C#N)c(Nc3ccc(OCc4ccccn4)c(Cl)c3)c2cc1NC(=O)/C=C/CN(C)C [Neratinib] + Cc1nc(NC(=O)N2CCC[C@H]2C(N)=O)sc1-c1ccnc(C(C)(C)C(F)(F)F)c1 [Alpelisib] (partner 2 µM)
Summary of the method: (§1)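 Five library-drug doses in √10 steps were combined with a fixed anchor-drug dose, or a single drug was given alone, by pin tool to lung cancer cell lines in 1536-well plates the day after seeding. Nuclei were stained and counted after 5 days. Relative viability is the nuclei count in treated wells over that in vehicle wells, taken as the median of duplicate plates.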

Neratinib + Olaparib = compound: CCOc1cc2ncc(C#N)c(Nc3ccc(OCc4ccccn4)c(Cl)c3)c2cc1NC(=O)/C=C/CN(C)C [Neratinib] + O=C(c1cc(Cc2n[nH]c(=O)c3ccccc23)ccc1F)N1CCN(C(=O)C2CC2)CC1 [Olaparib] (partner 8 µM)
Summary of the method: as §1

Neratinib + Palbociclib = compound: CCOc1cc2ncc(C#N)c(Nc3ccc(OCc4ccccn4)c(Cl)c3)c2cc1NC(=O)/C=C/CN(C)C [Neratinib] + CC(=O)c1c(C)c2cnc(Nc3ccc(N4CCNCC4)cn3)nc2n(C2CCCC2)c1=O [Palbociclib] (partner 0.5 µM)
Summary of the method: as §1

Neratinib + Pemetrexed = compound: CCOc1cc2ncc(C#N)c(Nc3ccc(OCc4ccccn4)c(Cl)c3)c2cc1NC(=O)/C=C/CN(C)C [Neratinib] + Nc1nc2[nH]cc(CCc3ccc(C(=O)N[C@@H](CCC(=O)O)C(=O)O)cc3)c2c(=O)[nH]1 [Pemetrexed] (partner 0.2 µM)
Summary of the method: as §1

Cell Line | relative viability (Neratinib + Alpelisib; first compound 0.01 µM) | relative viability (Neratinib + Alpelisib; first compound 0.03162 µM) | relative viability (Neratinib + Alpelisib; first compound 0.1 µM) | relative viability (Neratinib + Alpelisib; first compound 0.3162 µM) | relative viability (Neratinib + Alpelisib; first compound 1 µM) | relative viability (Neratinib + Olaparib; first compound 0.01 µM) | relative viability (Neratinib + Olaparib; first compound 0.03162 µM) | relative viability (Neratinib + Olaparib; first compound 0.1 µM) | relative viability (Neratinib + Olaparib; first compound 0.3162 µM) | relative viability (Neratinib + Olaparib; first compound 1 µM) | relative viability (Neratinib + Palbociclib; first compound 0.01 µM) | relative viability (Neratinib + Palbociclib; first compound 0.03162 µM) | relative viability (Neratinib + Palbociclib; first compound 0.1 µM) | relative viability (Neratinib + Palbociclib; first compound 0.3162 µM) | relative viability (Neratinib + Palbociclib; first compound 1 µM) | relative viability (Neratinib + Pemetrexed; first compound 0.01 µM) | relative viability (Neratinib + Pemetrexed; first compound 0.03162 µM) | relative viability (Neratinib + Pemetrexed; first compound 0.1 µM) | relative viability (Neratinib + Pemetrexed; first compound 0.3162 µM) | relative viability (Neratinib + Pemetrexed; first compound 1 µM)
LCLC-103H | 1 | 1 | 0.711 | 0.966 | 0.629 | 0.63 | 0.85 | 0.705 | 0.726 | 0.642 | 0.517 | 0.478 | 0.457 | 0.474 | 0.46 | 0.509 | 0.489 | 0.445 | 0.488 | 0.484
LK-2 | 1.15 | 1.17 |  | 0.816 | 0.327 | 0.941 | 0.949 | 0.747 | 0.553 | 0.433 | 0.868 | 0.752 |  | 0.476 | 0.522 | 0.318 | 0.464 | 0.265 | 0.221 | 0.151
LOU-NH91 | 0.628 | 0.598 | 0.507 | 0.447 | 0.475 | 0.977 | 0.944 |  | 0.678 | 0.632 | 0.504 | 0.547 | 0.557 | 0.462 | 0.536 | 0.383 | 0.439 | 0.426 | 0.43 | 0.424
LU99A | 0.66 | 0.625 | 0.483 | 0.323 | 0.259 | 0.251 | 0.286 | 0.246 | 0.268 |  | 0.377 | 0.434 | 0.356 | 0.385 | 0.329 | 0.185 | 0.194 | 0.155 | 0.21 | 0.188
LXF-289 | 1.03 | 1.04 | 0.974 | 0.98 | 0.765 | 1.12 | 1.28 | 0.931 | 1.06 | 0.889 | 0.633 | 0.631 | 0.554 |  | 0.58 | 0.881 | 0.981 | 0.834 | 0.933 | 0.87
NCI-H23 | 0.832 | 0.716 | 0.653 | 0.686 | 0.329 | 0.283 | 0.284 | 0.317 | 0.328 | 0.314 | 0.48 | 0.579 | 0.482 | 0.563 | 0.318 | 0.702 | 0.641 | 0.619 | 0.664 | 0.499
NCI-H322M | 0.657 | 0.839 | 0.803 | 0.478 | 0.218 | 0.715 |  | 0.785 | 0.512 | 0.415 | 0.468 | 0.475 | 0.417 | 0.376 | 0.41 | 0.642 | 0.652 | 0.598 | 0.448 | 0.371
NCI-H358 | 0.781 | 0.841 | 0.372 | 0.236 | 0.22 | 0.552 | 0.569 | 0.409 | 0.238 | 0.162 | 0.143 | 0.112 | 0.125 | 0.12 | 0.129 | 0.172 | 0.161 | 0.168 | 0.133 | 0.153
NCI-H441 | 0.972 | 0.906 |  | 0.504 | 0.254 | 0.57 | 0.438 | 0.488 | 0.48 | 0.417 | 0.244 | 0.192 | 0.177 | 0.163 | 0.161 | 0.256 | 0.266 | 0.261 | 0.278 | 0.248
NCI-H460 | 0.598 | 0.6 |  | 0.403 | 0.0801 | 0.428 | 0.43 | 0.383 | 0.415 | 0.419 | 0.19 | 0.215 | 0.171 | 0.166 | 0.0933 | 0.062 | 0.0586 | 0.063 | 0.0641 | 0.0813
NCI-H520 | 0.955 | 1.14 | 0.905 | 0.819 | 0.547 | 0.303 | 0.321 |  | 0.349 | 0.194 | 0.191 | 0.242 |  | 0.213 | 0.183 | 0.631 | 0.735 |  | 0.505 | 
NCI-H647 | 1.17 | 1.13 | 0.958 | 0.862 | 0.614 | 0.426 | 0.518 | 0.4 | 0.294 | 0.263 | 0.446 | 0.545 | 0.393 | 0.344 | 0.188 | 0.187 | 0.174 | 0.19 | 0.156 | 0.134
NCI-H650 | 1.13 | 1.32 | 0.999 |  | 0.85 | 0.39 | 0.434 | 0.372 | 0.318 | 0.392 | 0.372 | 0.306 | 0.293 | 0.294 | 0.371 | 0.98 | 1.11 | 0.932 | 0.831 | 0.773
NCI-H661 | 0.66 | 0.959 | 0.443 | 0.187 | 0.236 | 0.838 | 0.743 | 0.555 | 0.605 | 0.534 | 0.437 | 0.388 | 0.323 | 0.318 | 0.298 | 0.951 | 0.947 | 0.595 | 0.704 | 0.537
NCI-H838 | 1.05 | 1.16 | 0.94 | 0.832 | 0.344 | 0.762 | 0.785 | 0.798 | 0.649 | 0.399 | 0.223 | 0.23 | 0.216 | 0.176 | 0.176 | 0.247 | 0.268 | 0.242 | 0.239 | 0.243
NCI-H1355 | 0.949 | 0.83 | 0.788 | 0.698 | 0.236 | 0.772 | 0.719 | 0.7 | 0.701 | 0.547 | 0.38 | 0.41 | 0.348 | 0.302 | 0.274 | 1.07 | 1.03 | 0.951 | 1.02 | 0.821
NCI-H1395 | 1.07 | 1.17 | 1.06 | 1.07 | 0.729 |  | 0.491 | 0.449 | 0.469 | 0.413 | 0.66 | 0.709 | 0.63 | 0.58 | 0.414 | 1.01 | 0.982 | 0.862 | 0.877 | 0.614
